Laboratory results as given in patent US6350760B1, “Substituted piperidines as melanocortin-4 receptor agonists” (Merck & Co., Inc., priority 1999, dated 2002).
Marks after values point to notes of the source that are not given here.

Assays:
[1] = test system: animal feeding models (NPY, ob/ob, agouti, fasted); conditions: injected intracerebroventricularly (ICV) in rodents; cited from earlier work
[2] = test system: psychogenic erectile dysfunction; conditions: cited from earlier work
[3] = in vivo; cited from earlier work
[4] = test system: conscious rat model of reflexogenic erections; assay: Rat ex copula assay, conscious rat model of reflexogenic erections; format: in vivo; conditions: for efficacy of reference drugs in conscious rat model of reflexogenic erections: positive reference controls; for penile erections, % Increase from Vehicle or Baseline: rats
Procedure: Sexually mature male Caesarian Derived Sprague Dawley (CD) rats (over 60 days old) are used with the suspensory ligament surgically removed to prevent retraction of the penis back into the penile sheath during the ex copula evaluations. Animals receive food and water ad lib and are kept on a normal light/dark cycle. Studies are conducted during the light cycle.
1) Conditioning to Supine Restraint for Ex Copula Reflex Tests. This conditioning takes ˜4 days. Day 1, the animals are placed in a darkened restrainer and left for 15-30 minutes. Day 2, the animals are restrained in a supine position in the restrainer for 15-30 minutes. Day 3, the animals are restrained in the supine position with the penile sheath retracted for 15-30 minutes. Day 4, the animals are restrained in the supine position with the penile sheath retracted until penile responses are observed. Some animals require additional days of conditioning before they are completely acclimated to the procedures; non-responders are removed from further evaluation. After any handling or evaluation animals are given a treat to ensure positive reinforcement.
2) Ex Copula Reflex Tests. Rats are gently restrained in a supine position with their anterior torso placed inside a cylinder of adequate size to allow for normal head and paw grooming. For a 400-500 gram rat, the diameter of the cylinder is approximately 8 cm. The lower torso and hind limbs are restrained with a non-adhesive material (vetrap). An additional piece of vetrap with a hole in it, through which the glans penis will be passed, is fastened over the animal to maintain the preputial sheath in a retracted position. Penile responses will be observed, typically termed ex copula genital reflex tests. Typically, a series of penile erections will occur spontaneously within a few minutes after sheath retraction. The types of normal reflexogenic erectile responses include elongation, engorgement, cup and flip. An elongation is classified as an extension of the penile body. Engorgement is a dilation of the glans penis. A cup is defined as an intense erection where the distal margin of the glans penis momentarily flares open to form a cup. A flip is a dorsiflexion of the penile body.
Baseline and or vehicle evaluations are conducted to determine how and if an animal will respond. Some animals have a long duration until the first response while others are non-responders altogether. During this baseline evaluation latency to first response, number and type of responses are recorded. The testing time frame is 15 minutes after the first response.
[…] All evaluations are videotaped and scored later. Data are collected and analyzed using paired 2 tailed t-tests to compared baseline and/or vehicle evaluations to drug treated evaluations for individual animals. Groups of a minimum of 4 animals are utilized to reduce variability.
Positive reference controls are included in each study to assure the validity of the study. Animals can be dosed by a number of routes of administration depending on the nature of the study to be performed. The routes of administration includes intravenous (IV), intraperitoneal (IP), subcutaneous (SC) and intracerebral ventricular (ICV).
In this non-random crossover model, rats were placed in the supine position with the preputial sheath retracted to initiate a reflex arc. The number of erections was counted in the 15 minute period following the first erection.

human MC-2R [5] = molecular target: T1, human MC-2R (Homo sapiens, UniProt Q01718); assay: Functional cell based cAMP assay; parameters: expressed in transfected cells; host or cells: L- or CHO-cells; conditions: @ 10 μM; cAMP relative to alpha-MSH defined as 100% agonist
T1 sequence (Q01718 whole entry): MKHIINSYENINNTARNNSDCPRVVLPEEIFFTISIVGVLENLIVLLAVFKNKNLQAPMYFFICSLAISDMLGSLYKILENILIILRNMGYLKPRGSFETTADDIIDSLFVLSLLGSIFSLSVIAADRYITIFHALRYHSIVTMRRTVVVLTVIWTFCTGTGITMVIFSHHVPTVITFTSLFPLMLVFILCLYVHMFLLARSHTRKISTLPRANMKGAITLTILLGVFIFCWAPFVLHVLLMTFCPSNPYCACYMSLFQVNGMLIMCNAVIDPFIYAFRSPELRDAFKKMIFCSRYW
From the text: (§1) B. Functional assay. Functional cell based assays were developed to discriminate melanocortin receptor agonists from antagonists.
Cells (for example, CHO- or L-cells or other eukaryotic cells) expressing a human melanocortin receptor (see e.g. Yang-YK; Ollmann-MM; Wilson-BD; Dickinson-C; Yamada-T; Barsh-GS; Gantz-I; Mol-Endocrinol. 1997 Mar; 11(3): 274-80) were dissociated from tissue culture flasks by rinsing with Ca and Mg free phosphate buffered saline (14190-136, Life Technologies, Gaithersburg, Md.) and detached following 5 minutes incubation at 37° C. with enzyme free dissociation buffer (S-014-B, Specialty Media, Lavellette, N.J.). Cells were collected by centrifugation and resuspended in Earle's Balanced Salt Solution (14015-069, Life Technologies, Gaithersburg, Md.) with additions of 10 mM HEPES pH 7.5, 5 mM MgCl2, 1 mM glutamine and 1 mg/ml bovine serum albumin. Cells were counted and diluted to 1 to 5×10^6/ml. […]
cAMP was measured in an aliquot of the cell lysate with the Amersham (Arlington Heights, Ill.) cAMP detection assay (RPA556). […]
(§2) IC50's were determined in a competition binding assay with ^125I-NDP-alpha-MSH as ligand using crude membranes prepared from cell lines expressing the appropriate MC-R. Functional EC50's were determined by application of compound to intact cells followed by direct measurement of cAMP as described in the Biological Assays section above.

human MC-3R = molecular target: T2, human MC-3R (Homo sapiens, UniProt P41968); assay: Functional cell based cAMP assay; conditions: cAMP relative to alpha-MSH at 10 μM defined as 100% agonist
T2 construct: expressed in transfected cells; host or cells: CHO- or L-cells or other eukaryotic cells
T2 sequence (P41968 whole entry): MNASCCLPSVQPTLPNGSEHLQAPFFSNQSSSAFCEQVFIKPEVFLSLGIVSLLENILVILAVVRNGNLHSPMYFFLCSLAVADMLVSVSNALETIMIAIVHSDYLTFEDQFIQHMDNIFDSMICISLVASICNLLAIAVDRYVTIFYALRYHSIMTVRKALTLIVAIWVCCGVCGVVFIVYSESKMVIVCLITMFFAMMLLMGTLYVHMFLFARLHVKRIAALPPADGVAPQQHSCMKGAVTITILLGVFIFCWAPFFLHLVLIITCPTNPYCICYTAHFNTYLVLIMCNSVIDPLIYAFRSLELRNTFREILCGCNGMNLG
From the text: as §1
(§3) Cells (for example, CHO- or L-cells or other eukaryotic cells) expressing a human melanocortin receptor (see e.g. Yang-YK; Ollmann-MM; Wilson-BD; Dickinson-C; Yamada-T; Barsh-GS; Gantz-I; Mol-Endocrinol. 1997 Mar; 11(3): 274-80) were dissociated from tissue culture flasks by rinsing with Ca and Mg free phosphate buffered saline (14190-136, Life Technologies, Gaithersburg, Md.) and detached following 5 minutes incubation at 37° C. with enzyme free dissociation buffer (S-014-B, Specialty Media, Lavellette, N.J.). Cells were collected by centrifugation and resuspended in Earle's Balanced Salt Solution (14015-069, Life Technologies, Gaithersburg, Md.) with additions of 10 mM HEPES pH 7.5, 5 mM MgCl2, 1 mM glutamine and 1 mg/ml bovine serum albumin. Cells were counted and diluted to 1 to 5×10^6/ml. The phosphodiesterase inhibitor 3-isobutyl-1-methylxanthine was added to cells to 0.6 mM.
(§4) Test compounds were diluted in dimethylsulfoxide (DMSO) (10^−5 to 10^−10 M) and 0.1 volume of compound solution was added to 0.9 volumes of cell suspension; the final DMSO concentration was 1%. After room temperature incubation for 45 min., cells were lysed by incubation at 100° C. for 5 min. to release accumulated cAMP.
(§5) cAMP was measured in an aliquot of the cell lysate with the Amersham (Arlington Heights, Ill.) cAMP detection assay (RPA556). The amount of cAMP production which resulted from an unknown compound was compared to that amount of cAMP produced in response to alpha-MSH at 10 μM which was defined as a 100% agonist.
as §2

human MC-5R [6] = molecular target: T3, human MC-5R (Homo sapiens, UniProt P33032); assay: Functional cell based cAMP assay
T3 construct: expressed in transfected cells; host or cells: CHO- or L-cells or other eukaryotic cells
T3 sequence (P33032 whole entry): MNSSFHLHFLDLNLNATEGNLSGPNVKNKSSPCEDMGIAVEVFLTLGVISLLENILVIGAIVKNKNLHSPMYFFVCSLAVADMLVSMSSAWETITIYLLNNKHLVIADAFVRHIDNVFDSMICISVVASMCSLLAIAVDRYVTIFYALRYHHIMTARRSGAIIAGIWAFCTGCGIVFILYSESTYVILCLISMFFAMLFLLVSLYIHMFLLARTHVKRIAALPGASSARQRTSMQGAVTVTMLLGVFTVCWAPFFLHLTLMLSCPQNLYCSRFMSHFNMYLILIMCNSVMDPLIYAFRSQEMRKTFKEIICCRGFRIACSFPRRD
From the text: as §1, §3, §4, §5, §2

human MC-1R = molecular target: T4, human MC-1R (Homo sapiens, UniProt Q01726); assay: Functional cell based cAMP assay; conditions: cAMP relative to alpha-MSH at 10 μM defined as 100% agonist
T4 construct: expressed in transfected cells; host or cells: CHO- or L-cells or other eukaryotic cells
T4 sequence (Q01726 whole entry): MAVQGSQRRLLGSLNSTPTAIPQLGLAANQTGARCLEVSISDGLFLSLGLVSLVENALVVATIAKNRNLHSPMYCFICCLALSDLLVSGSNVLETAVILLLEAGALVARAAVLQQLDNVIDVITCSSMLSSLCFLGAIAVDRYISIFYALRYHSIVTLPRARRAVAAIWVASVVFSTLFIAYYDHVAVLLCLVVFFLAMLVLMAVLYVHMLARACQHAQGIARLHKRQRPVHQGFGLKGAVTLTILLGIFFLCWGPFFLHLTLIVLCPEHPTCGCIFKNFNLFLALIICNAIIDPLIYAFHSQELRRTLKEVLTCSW
From the text: as §1, §3, §4, §5, §2

human MC-2R [7] = molecular target: T1, human MC-2R; assay: Membrane binding assay, competition with 125I-NDP-alpha-MSH; parameters: expressed in transfected cells; host or cells: L- or CHO-cells (membranes); conditions: human receptor; average of at least 3 determinations
Procedure: (§6) A. Binding Assay. The membrane binding assay was used to identify competitive inhibitors of ^125I-NDP-alpha-MSH binding to cloned human MCRs expressed in L- or CHO-cells.
(§7) Cell lines expressing melanocortin receptors were grown in T-180 flasks containing selective medium of the composition: 1 L Dulbecco's modified Eagles Medium (DMEM) with 4.5 g L-glucose, 25 mM Hepes, without sodium pyruvate, (Gibco/BRl); 100 ml 10% heat-inactivated fetal bovine serum (Sigma); 10 ml 10,000 unit/ml penicillin & 10,000 ug/ml streptomycin (Gibco/BRl); 10 ml 200 mM L-glutamine (Gibco/BRl); 1 mg/ml Geneticin (G418) (Gibco/BRl). The cells were grown at 37° C. with CO2 and humidity control until the desired cell density and cell number was obtained.
(§8) The medium was poured off and 10 mls/monolayer of enzyme-free dissociation media (Specialty Media Inc.) was added. The cells were incubated at 37° C. for 10 minutes or until cells sloughed off when flask was banged against hand.
(§9) The cells were harvested into 200 ml centrifuge tubes and spun at 1000 rpm, 4° C., for 10 min. […]
as §2

human MC-5R [8] = molecular target: T3, human MC-5R; assay: as above; conditions: human receptor; average of at least 3 determinations
Procedure: as §6, §7, §8, §9, §2

erectile dysfunction = conditions: cited from earlier work; for duration of effect / onset of action: after an oral dose, men; for proportion of men/patients with adequate response: oral, erectile dysfunction patients

Ac-Nle-c[Asp-His-DPhe-Arg-Trp-Lys]-NH2 [MT-II]
effect on food intake [1]: reduces food intake | adverse reactions observed ([2]; in vivo): nausea, flushing, loss of appetite, stretching, and yawning | response rate ([2]; injected intramuscularly or subcutaneously to males with psychogenic erectile dysfunction): 75% | duration of action ([2]; men): approximately 2.5 hours | time to onset of erection ([2]; men): 10 to 20 min | absorption into the systemic circulation by the oral route [3]: not absorbed into the systemic circulation

CN1CCc2cccc3c2[C@H]1Cc1ccc(O)c(O)c1-3 [apomorphine]
efficacy of reference drugs in conscious rat model of reflexogenic erections [4]: effective

SHU-9119
effect on food intake [1]: reverses this effect and can induce hyperphagia

O=C(N[C@H](Cc1ccc(Cl)cc1)C(=O)N1CCC(Cn2cncn2)(C2CCCCC2)CC1)[C@H]1Cc2ccccc2CN1 [Example 2]
Functional Activity, agonist efficacy, MC-2R (human MC-2R [5]): 0% @ 10 μM | number of erections in conscious rat model of reflexogenic erections ([4]; administered by the intravenous (IV) route or by the oral (PO) route): effective in significantly increasing the number of erections | penile erections, % Increase from Vehicle or Baseline ([4]; 0.3 mg/kg IV, placed supine 60 min after dosing, P = 0.05): 15* % | penile erections, % Increase from Vehicle or Baseline ([4]; 1.0 mg/kg IV, placed supine 0 min after dosing, P = 0.05): 31% | penile erections, % Increase from Vehicle or Baseline ([4]; 1.0 mg/kg IV, placed supine 60 min after dosing, P = 0.05): 35% | penile erections, % Increase from Vehicle or Baseline ([4]; 5.0 mg/kg IV, placed supine 60 min after dosing, P = 0.01): 50** % | penile erections, % Increase from Vehicle or Baseline ([4]; 10 mg/kg IV, placed supine 0 min after dosing, P = 0.01): 45% | penile erections, % Increase from Vehicle or Baseline ([4]; 10 mg/kg IV, placed supine 60 min after dosing, P = 0.01): 38% | penile erections, % Increase from Vehicle or Baseline ([4]; 20 mg/kg PO, placed supine 60 min after dosing, P = 0.01): 24** % | penile erections, % Increase from Vehicle or Baseline ([4]; 20 μG ICV, placed supine 0 min after dosing, P = 0.05): 41* % | Functional Activity, agonist efficacy, MC-3R (human MC-3R): 29% | Functional Activity, agonist efficacy, MC-5R (human MC-5R [6]; cAMP relative to alpha-MSH at 10 μM defined as 100% agonist): 58% | EC50 (human MC-5R [6]; human receptor, cAMP, average of at least 3 determinations): 530 nM | Functional Activity, agonist efficacy, MC-1R (human MC-1R): 84% | IC50 (human MC-2R [7]): > 10000 nM | IC50 (human MC-5R [8]): 230 nM

Cc1ccc(N(CC2=NCCN2)c2cccc(O)c2)cc1 [phentolamine]
duration of effect (erectile dysfunction): 2 h | onset of action (erectile dysfunction): 5 to 30 min | proportion of men/patients with adequate response (erectile dysfunction): 35-40%

CCCc1nn(C)c2c(=O)[nH]c(-c3cc(S(=O)(=O)N4CCN(C)CC4)ccc3OCC)nc12 [sildenafil]
duration of effect (erectile dysfunction): about 4 hours | onset of action (erectile dysfunction): 30 to 60 min | adverse effects associated with clinical use (erectile dysfunction; clinical use): headache, flushing, dyspepsia, and “abnormal vision | proportion of men/patients with adequate response (erectile dysfunction): about 70% | efficacy of reference drugs in conscious rat model of reflexogenic erections [4]: effective
